According to patent publication US20210139467A1 (GLAXOSMITHKLINE INTELLECTUAL PROPERTY DEVELOPMENT LIMITED, priority 2017, published 2021):

How the values were obtained:
IDO1 = IDO1 (Homo sapiens, UniProt P14902); assay: IDO1 HeLa RapidFire MS Assay; format: cell-based; set-up: stimulated with human interferon-γ (IFN-γ); conditions: HeLa cells stimulated with IFN-γ; kynurenine detected by mass spectrometry; 2 days; read-out: IDO1 HeLa pIC50 (converted)
Procedure: IDO1 HeLa RapidFire MS Assay
Compounds of the present invention were tested via high-throughput cellular assays utilizing detection of kynurenine via mass spectrometry and cytotoxicity as end-points. For the mass spectrometry and cytotoxicity assays, human epithelial HeLa cells (CCL-2; ATCC®, Manassas, Va.) were stimulated with human interferon-γ (IFN-γ) (Sigma-Aldrich Corporation, St. Louis, Mo.) to induce the expression of indoleamine 2, 3-dioxygenase (IDO1). Compounds with IDO1 inhibitory properties decreased the amount of kynurenine produced by the cells via the tryptophan catabolic pathway. Cellular toxicity due to the effect of compound treatment was measured using CellTiter-Glo® reagent (CTG) (Promega Corporation, Madison, Wis.), which is based on luminescent detection of ATP, an indicator of metabolically active cells. […]
Following incubation, the 384-well plates were removed from the incubator and allowed to equilibrate to room temperature for 30 minutes. […] After a twenty minute incubation at room temperature, luminescence was read on an EnVision® Multilabel Reader (PerkinElmer Inc., Waltham, Mass.). […]

PAN02 pancreatic cells = conditions: cited from earlier work
[1] = system: conversion of T cells into CD4+FoxP3+ Tregs; conditions: co-culture of DCs and naive CD4+CD25- T cells; cited from earlier work

Chain of IDO1 (P14902 whole entry): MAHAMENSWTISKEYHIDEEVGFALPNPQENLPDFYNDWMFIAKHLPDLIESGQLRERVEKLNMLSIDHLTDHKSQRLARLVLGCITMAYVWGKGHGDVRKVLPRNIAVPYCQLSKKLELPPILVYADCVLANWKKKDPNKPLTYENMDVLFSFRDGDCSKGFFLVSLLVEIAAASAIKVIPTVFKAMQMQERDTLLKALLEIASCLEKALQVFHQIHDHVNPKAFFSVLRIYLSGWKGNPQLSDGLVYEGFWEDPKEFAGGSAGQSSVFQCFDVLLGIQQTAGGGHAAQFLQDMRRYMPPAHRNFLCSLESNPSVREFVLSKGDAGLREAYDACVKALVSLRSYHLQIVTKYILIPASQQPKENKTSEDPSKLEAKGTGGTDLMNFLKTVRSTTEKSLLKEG

Compound | IC50 (IDO1) | inhibition of tumor growth (PAN02 pancreatic cells; PAN02 syngeneic model, immunocompetent mice, orally dosed) | effect on tumor growth (PAN02 pancreatic cells; same tumor implanted in immune-deficient mice) | conversion of T cells into CD4+FoxP3+ Tregs [1]
CC(C)CN(c1ccc(C2(C(=O)O)CC2)nc1Nc1ccc(Cl)cn1)C1CCOCC1 [Example 15, 1-(6-((5-chloropyridin-2-yl)amino)-5-(isobutyl(tetrahydro-2H-pyran-4-yl)amino)pyridin-2-yl)cyclopropane-1-carboxylic acid] | 158 nM | – | – | –
CC(C)CN(c1ccc(C2(C(=O)NS(C)(=O)=O)CC2)nc1Nc1ccc(Cl)cn1)C1CCOCC1 [Example 16, 1-(6-((5-chloropyridin-2-yl)amino)-5-(isobutyl(tetrahydro-2H-pyran-4-yl)amino)pyridin-2-yl)-N-(methylsulfonyl)cyclopropane-1-carboxamide] | 10 nM | – | – | –
NS(=O)(=O)NCCNc1nonc1C(=NO)Nc1ccc(F)c(Br)c1 [INCB204360, epacadostat] | – | significant dose-dependent inhibition of tumor growth | without effect | blocked the conversion
